Measurements as given in patent US4466970A, “Dioxocyclobutene compounds” (Smith Kline & French Laboratories Limited, priority 1982, dated 1984).

System: histamine H2 -receptors
Assay: Heidenhain pouch dog: inhibition of histamine-stimulated acid secretion
Type: in vivo
Settings: intravenous administration; dose levels adjusted to produce similar peak responses

Nc1c(NCCCOc2cc(CN3CCCCC3)ccn2)c(=O)c1=O [Example 1, 1-[3-[4-(Piperidinomethyl)pyrid-2-yloxy]prop-1-ylamino]-2-aminocyclobut-1-ene-3,4-dione]
duration of action relative to cimetidine: significant increase in duration of action
